Laboratory results: publication PMC6017654, “Ionic Liquid-Promoted Synthesis of Novel Chromone-Pyrimidine Coupled Derivatives, Antimicrobial Analysis, Enzyme Assay, Docking Study and Toxicity Study” (Molecules : A Journal of Synthetic Chemistry and Natural …, 2018)
≈ marks a conversion by molar mass, not a printed value.

Legend:
Swiss albino mice = assay: In vivo acute oral toxicity study and gross behavioral study (OECD guideline No. 425)
Experimental: The in vivo acute oral toxicity and gross behavioral study results of the newly synthesized compounds 6c and 6f are as listed in Table 12 [26].
Each group, consisting of six Swiss albino mice (18–22 gm weight, overnight fasted), were kept in colony cage at 25 ± 2 °C with 55% relative humidity and 12 h of light and dark cycle. A specified dose of 100, 250, 500, 750, 1000, 1500 and 2000 mg/kg body weight of mice was administered orally as a single dose. The acute toxic symptoms and the behavioral changes produced by the test compounds were observed continuously for 4 h periods at 8th, 12th and 24th h on set of toxic symptoms and the gross behavioral changes were also recorded. These animals were maintained for further 10 days with observation made daily. The in vivo acute oral toxicity study was carried out at animal house at the Y.B. Chavan College of Pharmacy, Aurangabad IAEC approval number CPCSEA/IAEC/P’col-52/2015-16/115 [26].

A. flavus = assay: In vitro antifungal activity (MIC100, CLSI/NCCLS); type: cell-based; conditions: Aspergillus flavus; A. fla.; average of three readings; read-out: MIC 100
Experimental: (§1) The newly synthesized derivatives 4(a–f) and 6(a–f) were screened for their in vitro antifungal activity against different yeast and filamentous fungal pathogens. Minimum inhibitory concentration (MIC100) values for in vitro antifungal activity were determined by the methods recommended by National Committee for Clinical Laboratory Standards (NCCLS). Miconazole was used as standard drug. Dimethyl sulfoxide (DMSO) was used as solvent control.
(§2) In vitro antifungal activity was determined as per CLSI (formerly, NCCLS) guidelines. […] The medium yeast nitrogen base was dissolved in phosphate buffer pH 7 and it was autoclaved at 110 °C for 10 min. With each set a growth control without the antifungal agent and solvent control DMSO were included. The fungal strains were freshly sub cultured on to Sabouraud dextrose agar (SDA) and incubated at 25 °C for 72 h. The fungal cells were suspended in sterile distilled water and diluted to get 10^5 cells/mL. Further, ten microlitres of the standardized suspension was inoculated onto the control plates and the media incorporated with the antifungal agents. The inoculated plates were incubated at 25 °C for 48 h. The readings were taken at the end of 48 h and 72 h. The MIC was the lowest concentration of drug preventing growth of macroscopically visible colonies on drug containing plates when there was visible growth on the drug free control plates.

Aspergillus niger = assay: In vitro antifungal activity (MIC100, CLSI/NCCLS); type: cell-based; conditions: A. nig., average of three readings, read-out: MIC 100
Experimental: as §1, §2

Candida glabrata = assay: In vitro antifungal activity (MIC100, CLSI/NCCLS); type: cell-based; conditions: Nakaseomyces glabratus; C. glab.; average of three readings; read-out: MIC 100
Experimental: as §1, §2

Aspergillus fumigates = assay: In vitro antifungal activity (MIC100, CLSI/NCCLS); type: cell-based; conditions: A. fum., average of three readings, read-out: MIC 100
Experimental: as §1, §2

Cryptococcus neoformans = assay: In vitro antifungal activity (MIC100, CLSI/NCCLS); type: cell-based; conditions: C. neo., average of three readings, read-out: MIC 100
Experimental: as §1, §2

Candida albicans = assay: In vitro antifungal activity (MIC100, CLSI/NCCLS); type: cell-based; conditions: C. alb., average of three readings, read-out: MIC 100
Experimental: as §1, §2

Fusarium oxysporum = assay: In vitro antifungal activity (MIC100, CLSI/NCCLS); type: cell-based; conditions: F. oxy., average of three readings, read-out: MIC 100
Experimental: as §1, §2

COc1ccc2occ(C3NC(=S)NC(C)=C3C(=O)NN)c(=O)c2c1 (stereo not drawn) [Compound 6f, 4-(6-Methoxy-4-oxo-4H-chromen-3-yl)-6-methyl-2-thioxo-1,2,3,4-tetrahydropyrimidine-5-carbohydrazide]
No. of Deaths (Swiss albino mice; Swiss albino mice, single oral dose 100 to 2000 mg/kg): N | lethal dose (Swiss albino mice; mice, oral, single dose, no mortality up to 2000 mg/kg): above 2000 mg/kg body weight | MIC (A. flavus): 15 µg/mL (≈ 41.6 µM) | MIC (Aspergillus niger): 16 µg/mL (≈ 44.4 µM) | MIC (Candida glabrata): 25 µg/mL (≈ 69.4 µM) | MIC (Aspergillus fumigates): 33 µg/mL (≈ 91.6 µM) | MIC (Cryptococcus neoformans): 15 µg/mL (≈ 41.6 µM) | MIC (Candida albicans): 24 µg/mL (≈ 66.6 µM) | MIC (Fusarium oxysporum): 28 µg/mL (≈ 77.7 µM)
